Experimental findings from US6495133B1, “Gliocladium roseum strains useful for the control of fungal pathogens in plants” (priority 1998, dated 2002) are described below.

The subject of the test is Pythium aphanidermatum. Put plainly: Comparison and compatibility of ACM941 with metalaxyl fungicide, pythium root rot of field pea, field experiments. The test is classed as in vivo. To be noted: for Emergence / Yield: Saturn field pea.
Where [1] appears, read: average of the two testing years.

Turning to `COCC(=O)N(c1c(C)cccc1C)C(C)C(=O)OC` (stereo not drawn) [Metalaxyl, metalaxyl], where the note is “1997”, the Emergence came out at 44.3 ab % and the Yield was determined as 990 bc kg/ha. Where the note is “1998”, this compound had an Emergence of 78.2 a % and a Yield of 5757 a kg/ha. Besides, under setting [1], the “increased emergence by” value came out at 17.3% and the “increased yield by” value turned out to be 19.5%.
